Results from patent US10077284B2, “UBA5 inhibitors” (THE GOVERNING COUNCIL OF THE UNIVERSITY OF TORONTO, priority 2014, dated 2018).
Where “and” joins values, the source holds several entries; their conditions need not be identical. Identical values can stand only once. Like-named read-outs stand apart in the source and are kept apart here.

Legend:
[1] = biological target: T1, GST-UBA5 (Homo sapiens, UniProt Q9GZZ9); assay: UBA5 transthiolation assay (UFC1-UFM1 conjugate formation); assay type: biochemical
T1 construct: made in house
Protocol: (§5) Initial rates were recorded over 30 second time intervals from 0 to 2.5 min (normal kinetics) or 0 to 5 min (inhibition kinetics). Reactions were initiated by the addition of ATP and stopped using 4× Laemmli sample buffer (BioRad). The generated protein conjugates were separated on a 10% non-degenerating SDS-polyacrylamide gel (4-15% gels were used for the UAE transthiolaton assay), followed by Western blot analysis, with the exception of GST-UBA5 where protein bands were detected using Coomassie™ Brilliant Blue R-250 staining or Stain-Free gel imaging for the enzymatic assays (Bio-Rad). Transfers for the UAE and NAE immunoblots were performed using nitrocellulose membranes and blocking and blotting was performed as described above with cellular protein extracts. The His6-tagged Ub-UBCH6 complex was detected using an anti-His mouse monoclonal primary antibody (1:500, abcam). A rabbit anti-NEDD8 polyclonal primary antibody (1:500, BostonBiochem) was used for the detection of the E2-NEDD8 complexes. […] Inhibitory data was fit to a dose-response curve (Y=Bottom+(Top−Bottom)/(1+10^(X-Log IC50))) using GraphPad Prism 6.

[2] = biological target: T2, NEDD8 activating enzyme (NAE) (Homo sapiens, UniProt Q8TBC4); assay: NAE transthiolation assay (NEDD8 transfer to UbcH12); assay type: biochemical
T2 construct: purchased Boston Biochem
T2 sequence (Q8TBC4 1-463): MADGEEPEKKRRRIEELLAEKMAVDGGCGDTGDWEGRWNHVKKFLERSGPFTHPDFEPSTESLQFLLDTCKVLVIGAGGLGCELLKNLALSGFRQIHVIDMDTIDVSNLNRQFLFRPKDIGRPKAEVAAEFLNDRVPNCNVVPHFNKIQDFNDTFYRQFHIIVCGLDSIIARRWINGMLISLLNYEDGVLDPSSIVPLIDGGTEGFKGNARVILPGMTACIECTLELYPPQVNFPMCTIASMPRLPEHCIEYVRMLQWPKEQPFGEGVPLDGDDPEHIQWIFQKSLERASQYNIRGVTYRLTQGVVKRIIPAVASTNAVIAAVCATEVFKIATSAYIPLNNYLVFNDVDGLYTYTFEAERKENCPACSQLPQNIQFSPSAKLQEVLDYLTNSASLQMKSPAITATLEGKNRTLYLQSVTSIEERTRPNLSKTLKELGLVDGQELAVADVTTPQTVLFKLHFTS
T2 sequence (Q13564 1-534 partner): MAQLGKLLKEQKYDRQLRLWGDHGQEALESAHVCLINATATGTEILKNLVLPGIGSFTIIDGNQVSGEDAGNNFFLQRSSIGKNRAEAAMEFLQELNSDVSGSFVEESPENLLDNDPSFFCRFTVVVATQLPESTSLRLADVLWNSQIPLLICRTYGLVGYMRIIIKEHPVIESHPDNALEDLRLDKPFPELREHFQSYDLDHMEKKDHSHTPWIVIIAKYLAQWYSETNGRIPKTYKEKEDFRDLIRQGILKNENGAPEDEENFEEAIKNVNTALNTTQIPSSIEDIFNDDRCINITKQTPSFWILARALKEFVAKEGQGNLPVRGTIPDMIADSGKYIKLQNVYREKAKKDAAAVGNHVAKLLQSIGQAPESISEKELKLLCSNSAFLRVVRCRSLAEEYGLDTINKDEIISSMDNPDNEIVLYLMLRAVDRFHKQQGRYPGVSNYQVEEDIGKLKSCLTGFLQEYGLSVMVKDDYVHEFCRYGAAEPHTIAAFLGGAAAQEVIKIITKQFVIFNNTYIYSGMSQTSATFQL
Protocol: as §5

[3] = biological target: UBA5 (Homo sapiens, UniProt Q9GZZ9); conditions: in the presence of 1.5.Zn (5 μM)
Protocol: Initial rates were recorded over 30 second time intervals from 0 to 2.5 min (normal kinetics) or 0 to 5 min (inhibition kinetics). Reactions were initiated by the addition of ATP and stopped using 4× Laemmli sample buffer (BioRad). The generated protein conjugates were separated on a 10% […] SDS-polyacrylamide gel (4-15% gels were used for the UAE transthiolaton assay), followed by Western blot analysis, with the exception of GST-UBA5 where protein bands were detected using Coomassie™ Brilliant Blue R-250 staining or Stain-Free gel imaging for the enzymatic assays (Bio-Rad). Transfers for the UAE and NAE immunoblots were performed using nitrocellulose membranes and blocking and blotting was performed as described above with cellular protein extracts. The His6-tagged Ub-UBCH6 complex was detected using an anti-His mouse monoclonal primary antibody (1:500, abcam). A rabbit anti-NEDD8 polyclonal primary antibody (1:500, BostonBiochem) was used for the detection of the E2-NEDD8 complexes. […] Inhibitory data was fit to a dose-response curve (Y=Bottom+(Top−Bottom)/(1+10^(X-Log IC50))) using GraphPad Prism 6.
Concentrations of UBA5 (1 μM), UFM1 (10 μM), and UFC1 (10 μM) were held constant, while the concentration of ATP was varied from 0 to 1 mM. […] Protein concentrations were held constant as in (A), and concentrations of ATP were varied from 0 to 1 mM (n=3). […]

[4] = tested on: UFM1 conjugation in K562 cells; conditions: K562, increasing concentrations, 72 h
Protocol: (§1) Cells were washed twice with cold PBS and protein extracts were prepared using RIPA buffer with a protease and phosphatase inhibitor cocktail (Roche #11836153001, #04906845001). Protein concentrations were determined using the BCA protein quantification technique (BCA Protein assay kit, Pierce). In each assay, 30 μg of whole cell protein extract was resolved on a 10% SDS-polyacrylamide gel and transferred to a PVDF membrane (Bio-Rad). The membranes were blocked with SuperBlock (Thermo scientific; No. 37515) for at least 1 hr followed by an overnight incubation in primary antibody. Blots were probed with antibodies against UBA5 (abcam; ab109227) and UFM-1 (abcam; ab09305) in a 1:1000 dilution, and anti-β-actin (1:5000 dilution; Cell Signaling, 3700S) was used as a loading control. […] The bands were visualized and analyzed using Image lab software (Bio-Rad).
(§2) The intracellular inhibition of UBA5 was evaluated in order to investigate its use as a molecular tool to study cellular UFMylation by UBA5 inactivation. […] The graphical representation of the intracellular inhibition of UFM1 protein conjugation (evaluated using Western Blot analysis, described in detail within the Materials and Methods submitted in May 2014) is shown in FIG. 26. […]

[5] = tested on: UFM1 conjugation in Sk-Luci6 cells; conditions: Sk-Luci6, increasing concentrations, 72 h
Protocol: as §1, §2

[6] = tested on: NEDD8 downstream protein labeling in A549 cells; conditions: A549, increasing concentrations
Protocol: (§3) Cells were washed twice with cold PBS and protein extracts were prepared using RIPA buffer with a protease and phosphatase inhibitor cocktail (Roche #11836153001, #04906845001). Protein concentrations were determined using the BCA protein quantification technique (BCA Protein assay kit, Pierce). In each assay, 30 μg of whole cell protein extract was resolved on a 10% SDS-polyacrylamide gel and transferred to a PVDF membrane (Bio-Rad). The membranes were blocked with SuperBlock (Thermo scientific; No. 37515) for at least 1 hr followed by an overnight incubation in primary antibody. Blots were probed with antibodies against UBA5 (abcam; ab109227) and UFM-1 (abcam; ab09305) in a 1:1000 dilution, and anti-β-actin (1:5000 dilution; Cell Signaling, 3700S) was used as a loading control. Fluorescent labeled secondary antibodies anti-rabbit Alexa Fluor® 647 Conjugate (red, 1:5000) and anti-mouse Alexa Fluor® 488 Conjugate (green, 1:20,000) were used to detect bands (Cell Signaling; 4414S and 4408S, respectively). The bands were visualized and analyzed using Image lab software (Bio-Rad).
(§4) Bands were visualized using anti-rabbit Alexa Fluor® 647 (1:5000, for NEDD8 and NEDD8 conjugates) and anti-mouse Alexa Fluor® 488 (1:20,000, for actin) secondary antibodies.

[7] = tested on: NEDD8 downstream protein labeling in Sk-Luci6 cells; conditions: Sk-Luci6, increasing concentrations
Protocol: as §3, §4

[8] = tested on: Sk-Luci6, A549 and MRC-9 cells; conditions: all treated cells
Source text: Confluence of live cells was estimated visually under phase contrast microscopy.
Sk-Luci6, A549 and MRC-9 were each plated as 5×10^3 cells per well and grown in 10% serum on a 96 well plate. […] Cell numbers were obtained at 24 hr time points over a period of 72 hrs using trypan blue exclusion assay (BioRad; #145-0021) and counted using a hemocytometer.

T1 sequence (Q9GZZ9 whole entry): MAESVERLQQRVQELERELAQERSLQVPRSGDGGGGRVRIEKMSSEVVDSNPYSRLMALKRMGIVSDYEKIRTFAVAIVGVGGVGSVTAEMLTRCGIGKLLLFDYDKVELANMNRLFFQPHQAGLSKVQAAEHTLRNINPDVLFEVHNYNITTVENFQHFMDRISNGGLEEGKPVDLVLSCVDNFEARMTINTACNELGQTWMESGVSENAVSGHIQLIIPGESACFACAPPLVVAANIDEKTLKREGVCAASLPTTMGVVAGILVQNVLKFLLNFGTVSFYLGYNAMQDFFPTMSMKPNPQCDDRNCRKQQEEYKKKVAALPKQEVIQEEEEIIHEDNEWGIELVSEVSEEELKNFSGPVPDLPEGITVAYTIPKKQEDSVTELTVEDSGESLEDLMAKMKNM
Chain of UBA5 (Q9GZZ9 whole entry): as above

## Nc1ncnc2c1ncn2[C@@H]1O[C@H](C(=O)NCCCCCC(=O)N2CCNCCNCCNCC2)[C@@H](O)[C@H]1O.O=S(=O)([O-])C(F)(F)F.O=S(=O)([O-])C(F)(F)F.[Zn+2] [Compound 1.5.Zn, (2S,3S,4R,5R)—N-(6-(1,4,7,10-tetraazacyclododecan-1-yl)-6-oxohexyl)-5-(6-amino-9H-purin-9-yl)-3,4-dihydroxytetrahydrofuran-2-carboxamide zinc trifluoromethanesulfonate]
[1]; Table 1, transthiolation enzymatic assay, read-out: IC50
  IC50: 4 µM
[1]; Table 5, n = 3, read-out: IC50
  IC50: 4 µM
[1]; comparison between series
  relative inhibitor activity against UBA5: most potent zinc-coordinated complex
[1]; read-out: IC50, inhibition of UFC1-UFM1 conjugate formation
  IC50: 4.1 µM and 4 µM
[2]; n=3-6
  IC50: 103 µM and 66.8 µM
[2]; ratio of IC50
  selectivity for UBA5 over NAE: > 20 fold and ~20 fold
[3]
  VMAX: 0.988 ± 0.137 pmol/min
  kCAT: 0.00188 ± 0.000267 s⁻¹
[4]
  UFMylation levels: Decreased UFMylation levels
[5]
  UFMylation levels: Decreased UFMylation levels
[6]
  intracellular NAE inhibition (NEDD8 labeling): no intracellular NAE inhibition
[7]
  intracellular NAE inhibition (NEDD8 labeling): no intracellular NAE inhibition
[8]
  cell death: no cell death
